Results on one compound are retold here after patent publication US20230035479A1, “METHODS AND COMPOSITIONS FOR REDUCING HAIR GREYING” (President and Fellows of Harvard College, priority 2019, published 2023).

In one experiment the test system is C57BL/6J mice. The experiment is classed as in vivo, mouse.
The next experiment has as its system sympathetic neurons. In words: c-FOS immunofluorescence in sympathetic ganglia. Format: in vivo, mouse. The settings on record: after RTX injection.
The subject of experiment [1] is melanocyte stem cells (MeSCs). Put plainly: Apoptosis (active caspase-3, TUNEL) and DNA damage (gamma-H2AX) in MeSCs. The experiment is classed as in vivo, mouse. Here is the method:
Radiation causes DNA damage in MeSCs, leading to their differentiation within the niche.
(§1) Mouse skin samples were fixed using 4% paraformaldehyde (PFA) for 15 minutes at room temperature, washed 6 times with PBS, and immersed in 30% sucrose overnight at 4° C. Samples were then embedded in OCT (Sakura Finetek). 35˜50 μm sections were fixed in 4% paraformaldehyde (PFA) for 2 minutes and washed with PBS and PBST. Slides were then blocked using blocking buffer (5% donkey serum; 1% BSA, 2% cold water fish gelatin in 0.3% Triton in PBS) for 1 hour at room temperature, followed by staining with primary antibodies overnight at 4° C. and secondary antibody for 4 hours at room temperature. For sympathetic nerve density quantification, 90 μm sections were used. EdU was developed for 1 hour using the Click-It reaction according to manufacturer instructions (Thermo Fisher Scientific). TUNEL assay was performed according to manufacturer instructions (Roche). Fontana—Masson staining was performed according to manufacturer instructions (Market Lab ML7255). Antibodies used: TRP2 (Santa Cruz 10451, 1:800), tyrosine hydroxylase (rabbit, Millipore AB152, 1:1000 or sheep, Millipore AB1542, 1:150-1:300), c-Fos (Abcam, 190289, 1:1000), γ-H2AX (Cell Signaling, 9718, 1:400), phospho-histone H3 (rabbit, Cell Signaling Technology 3377S, 1:500), cleaved caspase 3 (rabbit, Cell Signaling Technology 9664S, 1:400), GFP (rabbit, Abcam ab290, 1:1000 or chicken, Ayes labs GFP-1010, 1:200), CD3 (eBioscience 14-0032-81, 1:800), CD11b (eBioscience 14-0112-81, 1:800), Phospho-CREB (Cell Signaling 9198, 1:800), MITF (Abcam ab12039, 1:400).

The subject of experiment [2] is Phospho-CREB (a downstream effector of ADRB2). In words: Phospho-CREB immunofluorescence in hair follicles. The settings on record: 12 hours after RTX injection; not in mature melanocytes. Format: in vivo, mouse. Here is the method:
It was then considered whether ADRB2 might mediate the impact of stress on MeSCs.
(§2) Mouse skin samples were fixed using 4% paraformaldehyde (PFA) for 15 minutes at room temperature, washed 6 times with PBS, and immersed in 30% sucrose overnight at 4° C. Samples were then embedded in OCT (Sakura Finetek). 35˜50 μm sections were fixed in 4% paraformaldehyde (PFA) for 2 minutes and washed with PBS and PBST. Slides were then blocked using blocking buffer (5% donkey serum; 1% BSA, 2% cold water fish gelatin in 0.3% Triton in PBS) for 1 hour at room temperature, followed by staining with primary antibodies overnight at 4° C. and secondary antibody for 4 hours at room temperature. For sympathetic nerve density quantification, 90 μm sections were used. EdU was developed for 1 hour using the Click-It reaction according to manufacturer instructions (Thermo Fisher Scientific). TUNEL assay was performed according to manufacturer instructions (Roche). Fontana—Masson staining was performed according to manufacturer instructions (Market Lab ML7255). […]

The next experiment has as its system mature melanocytes. Put plainly: Differentiated/mature melanocytes and hair bulb cells, immunofluorescence. Format: in vivo, mouse. Here is the method:
Loss of hair pigmentation can be due to defects in melanin synthesis, loss of differentiated melanocytes, or problems in MeSC maintenance. To understand how stress impacts the melanocyte lineage, RTX was injected into mice in anagen, when both MeSCs and differentiated melanocytes were present but located within distinct compartments—MeSCs were near to the bulge while differentiated melanocytes were at the hair bulb (FIG. 1E). […] These differentiated melanocytes continued to generate pigments, and the hair coat remained black (FIGS. 6F-6G). When hair follicles in the RTX-injected animals entered catagen and telogen, many have lost all MeSCs (FIG. 1E, Telo). Subsequently, when the next round of anagen initiated, differentiated melanocytes were not produced to color new hair shafts, and unpigmented hairs emerged (FIG. 1E, 2nd Ana, FIG. 6H). […] In this case, unpigmented hairs appeared as soon as new hairs emerged in the following anagen (FIGS. 7A-7B). […] MeSCs were also lost or reduced in mice subjected to restraint stress or chronic unpredictable stress (FIG. 7C). Since stress depleted MeSCs, the loss of hair pigmentation in all three conditions was permanent (FIG. 7D).
Quiescence is a key feature of many somatic stem cells. Loss of quiescence has been postulated to cause MeSC loss in Bcl2 mutants. To examine if stress alters MeSCs quiescence, RTX or norepinephrine was injected into mice that had entered full anagen, when MeSCs are normally quiescent. A dramatic increase in the number of proliferating MeSCs was seen within 24 hours after RTX or norepinephrine injection—about 50% of MeSCs became positive for Phospho-Histone H3, an M phase marker (FIG. 4B). This number is in sharp contrast to the MeSC proliferation seen in early anagen (˜6%), the only stage when MeSCs proliferate to self-renew (FIG. 11E).
as §1

Experiment [3] is described as follows: Fontana-Masson melanin staining. The experiment is classed as in vivo, mouse. Particulars: 5 days after RTX injection. How it is done: They also began to depart from the bulge—some migrated downwards along the hair follicle, and some migrated out into dermis or epidermis (FIG. 4C, D2 and D3). By Day 3, many GFP positive cells had migrated out of the bulge, and by Day 4, many hair follicles had lost all GFP positive cells in the bulge.
as §2

Experiment [4] concerns melanocyte stem cells (MeSCs). In words: MeSC proliferation, Phospho-Histone H3 immunofluorescence. Particulars: within 24 hours after injection, full anagen.
Experimental: For RTX injection, mice received injections of RTX (30-100 μg/kg) in the flank for 1-3 days as described previously [15, 16, 51-56]. […] Control mice were treated with the vehicle only. RTX injection was done either in full anagen (P31-P36) or in 1st telogen (P21). […] RTX was given at Anagen VI (P31˜P36).
All images were acquired using a Zeiss LSM 880 confocal microscope or Keyence microscope using ×20 or ×40 magnification lenses. Images are presented as Maximum Intensity Projection images. For colocalization analysis, images are presented as a single Z stack.
Experiment [5] has as its system melanocyte stem cells (MeSCs). In words: MeSC numbers in hair follicles, TRP2 immunofluorescence or membrane GFP tracing.
Experimental: For RTX injection, mice received injections of RTX (30-100 μg/kg) in the flank for 1-3 days as described previously [15, 16, 51-56]. […] Control mice were treated with the vehicle only. RTX injection was done either in full anagen (P31-P36) or in 1st telogen (P21). […] Mice were treated for three days (P28-P30). […] RTX was given at Anagen VI (P31˜P36).

Read-outs that look alike come from different tables or passages of the source.

Turning to `C=C(C)[C@]12C[C@@H](C)[C@@]34O[C@](Cc5ccccc5)(O[C@@H]1[C@@H]3C=C(COC(=O)Cc1ccc(O)c(OC)c1)C[C@]1(O)C(=O)C(C)=C[C@@H]41)O2` [RTX, resiniferatoxin], the “hair greying (unpigmented hairs)” value in the experiment on C57BL/6J mice (C57BL/6J mice, next hair cycle after RTX injection) is “many new hairs formed in the next hair cycle following RTX injection became unpigmented”. Further, in the experiment on C57BL/6J mice (RTX injection, male and female mice), the “extent of hair greying, male vs female” value is “same extent of hair greying in both male and female mice”. The white hair formation result was “still resulted in white hair formation” in the experiment on C57BL/6J mice (RTX into CD11b-DTR mice, myeloid lineages ablated by diphtheria toxin); “still resulted in white hair formation” in the experiment with C57BL/6J mice (RTX into Rag1 mutant mice lacking T and B cells); “white hairs failed to form” in the experiment on C57BL/6J mice (RTX, ADRB2 depleted from MeSCs using Tyr-CreER). Further, the hair greying entry with C57BL/6J mice (RTX into RIPK3 mutant mice) is “still caused hair greying”; in the experiment on C57BL/6J mice (RTX into Tyr-CreER, GR fl/fl mice (MeSC-GR cKO)), “still resulted in hair greying”; with C57BL/6J mice (RTX into adrenalectomized mice), “still caused hair greying”; in the experiment with C57BL/6J mice (RTX, ADRB2 depleted from hair follicle stem cells) it was “still resulted in hair greying”. Also, the “c-FOS induction in cell bodies of sympathetic neurons” value in the experiment with sympathetic neurons was “Robust c-FOS induction”. In the experiment with sympathetic neurons, the “time at which c-FOS induction diminishes” value was greater than 24 h. In addition, the “time of peak c-FOS induction” value in the experiment on sympathetic neurons is 2 to 4 h. Also, in the experiment with sympathetic neurons, the “time to c-FOS induction” value is no more than 1 h. For the same compound, the “active caspase-3 or TUNEL signals in MeSCs” value in experiment [1] (before MeSC depletion from the niche, 1 day after injection) is recorded as “failed to detect active caspase-3 or TUNEL signals”. The “gamma-H2AX foci (DNA damage) in MeSCs” value in experiment [1] (following injection) was “failure to detect gamma-H2AX foci”. Besides, the “Phospho-CREB in MeSCs” value in experiment [2] is reported as “marked induction of Phospho-CREB”. Besides, the “differentiated melanocytes in the same hair follicle” value with mature melanocytes (5 days after RTX injection in anagen) was “remained unperturbed”. The “proliferation or apoptosis in mature melanocytes” value in the experiment on mature melanocytes (after injection, full anagen) is listed as “no changes in proliferation or apoptosis”. Besides, in experiment [3], the ectopic pigmentation entry is “ectopic pigmentation could be detected along the hair follicle, epidermis, and dermis”. In addition, the “MeSCs positive for Phospho-Histone H3” value in experiment [4] is given as “about 50%”. In addition, the MeSC loss entry in experiment [5] (RTX injected during telogen) is given as “caused MeSC loss”. In addition, the “time to complete loss of MeSCs from the bulge in many hair follicles” value in experiment [5] (RTX injected in anagen) was no more than 5 days. Also, the “TRP2+ MeSC number” value in experiment [5] (RTX injected in anagen, entire skin) is reported as “significantly reduced”. Besides, the “GFP positive cells (traced MeSCs)” value in experiment [5] (Tyr-CreER, Rosa-mT/mG mice, shortly after RTX injection (D1)) is reported as “transient increase in GFP positive cells”.
